# Earlier results in US8658200B2, “Flavoring of drug-containing chewing gums” (McNeil-PPC, Inc., priority 2005, dated 2014).
# Test system: adult
structure (smiles),measurement,value
"CN1CCCC1c1cccnc1 (stereo not shown) [nicotine, 3-(1-methyl-2-pyrrolidinyl)-pyridine]",amount of nicotine able to kill an adult,Approximately 40 milligrams
